Assay [1] deals with Na+/H+ exchanger. Put plainly: Na+/H+ exchanger activity in BCECF-loaded SH-SY5Y-AT1A cells. Type of assay: cell-based, human. Here is the method: Similarly, Na^+/H^+ exchanger activity was measured in response to angiotensin II at the individual cell level in BCECF-loaded SH-SY5Y-AT1A cells. […] Exposing the cells to BAPTA-AM (10 μM) prior to angiotensin II, prevented the angiotensin II-induced increase in Na^+/H^+ exchanger activity.

Assay [2] relates to cardiac sympathetic nerve endings. Put plainly: angiotensin II-evoked norepinephrine release from cardiac sympathetic nerve endings. The conditions noted are these: for decrease of angiotensin II-induced norepinephrine release / effect on norepinephrine release induced by angiotensin II (FIG. 20): EIPA 30 μM, U-73122 1 μM; for decrease of angiotensin II-induced norepinephrine release: DMI 300 nM; for effect on norepinephrine release induced by angiotensin II (FIG. 20): DMI 300 μM.
Procedure: Briefly, male Hartley guinea pigs were anesthetized with CO2 vapor and then exsanguinated. Hearts were perfused through the aorta for 15 min at constant pressure with Ringer's solution at 37° C. […] Hearts were minced in 0.32 M sucrose containing 1 mM EGTA. The minced tissue was then digested with 75 mg collagenase per 10 ml HBS per gm for 1 hr at 37° C. After low speed centrifugation the resulting pellet were suspended in 10 volumes of 0.32 M sucrose and homogenized with a Teflon/glass homogenizer. The homogenate was centrifuged at 650g for 10 min, the pellet was re-homogenized and the homogenate was centrifuged again. The pellet containing cellular debris was discarded, the supernatants from the last two spins were combined, the pooled supernatant was equally subdivided into 4 to 8 tubes and re-centrifuged for 20 min at 20,000g at 4° C. This pellet contains cardiac sympathetic nerve endings. The pellet was resuspended either in HEPES-buffered saline (HBS; 500 μl, normoxic conditions) or in glucose-free HBS, which contained the reducing agent sodium dithionite (500 μl, ischemic conditions), and incubated in the absence or presence of angiotensinogen (1 hr) or other agents for 20 min at 37° C. prior to ischemia (see below). Each suspension was used only once as an independent sample.
Norepinephrine assay: Coronary effluent and synaptosome supernatant will be assayed for NE by HPLC with electrochemical detection (ESA). […] The detection limit is about 0.2 pmol.

The test system of assay [3] is SH-SY5Y-AT1A cells. Put plainly: [3H]MPP+ release from SH-SY5Y-AT1A cells.
Source text: Efflux was arrested after 10-min exposure to angiotensin II.
For assay [4], the system named is SH-SY5Y-AT1A cells. Briefly: intracellular calcium in Fura-2 loaded SH-SY5Y-AT1A cells. Type of assay: cell-based, human. The protocol:
The next series of experiments were used to outline the major signaling steps in angiotensin II-evoked release of norepinephrine from sympathetic nerve endings. In particular, experiments were designed to ascertain whether stimulation of PLC might result in an increase in intracellular calcium via IP3 generation. Intracellular calcium (Cai) was measured at the individual cell level using Fura-2 loaded SH-SY5Y-AT1A cells (McDonald et al., Neurosci. Lett. 199: 115-118, 1995; Silver et al., Proc. Natl. Acad. Sci. USA 99: 501-506, 2002).
As discussed above, PLC activation may be an early signaling step in mediating this angiotensin II-induced Ca^2+ transient. The PLC inhibitor U-73122 (1 μM) was used to verify this hypothesis. FIG. 21B is a representative trace from one Fura-2 loaded SH-SY5Y-ATIA cell pre-exposed to U-73122.

Assay [5] relates to human lung mast cells. As to conditions: cited from earlier work.
Assay [6] relates to cardiac sympathetic nerve endings. Put plainly: norepinephrine release from isolated cardiac sympathetic nerve endings incubated with angiotensinogen. Type of assay: cell-based, guinea pig. From the text: Preparation ofguinea-pig sympathetic nerve endings: Cardiac sympathetic nerve endings were isolated from guinea-pig hearts as previously described (Seyedi et al., J Pharmacol Exp Ther 290: 656-663, 1999; Seyedi et al., Circ. Res. 81: 774-784, 1997). Spontaneously beating hearts were isolated as previously described by the inventors (Hatta et al., J. Pharmacol. Exp. Ther. 288: 919-927, 1999; Park et al., Circ. Res. 71: 992-1001, 1992). Briefly, male Hartley guinea pigs were anesthetized with CO2 vapor and then exsanguinated. Hearts were perfused through the aorta for 15 min at constant pressure with Ringer's solution at 37° C. (Park et al., Circ. Res. 71: 992-1001, 1992) to exclude blood from the coronary circulation. Hearts were minced in 0.32 M sucrose containing 1 mM EGTA. The minced tissue was then digested with 75 mg collagenase per 10 ml HBS per gm for 1 hr at 37° C. After low speed centrifugation the resulting pellet were suspended in 10 volumes of 0.32 M sucrose and homogenized with a Teflon/glass homogenizer. The homogenate was centrifuged at 650g for 10 min, the pellet was re-homogenized and the homogenate was centrifuged again. The pellet containing cellular debris was discarded, the supernatants from the last two spins were combined, the pooled supernatant was equally subdivided into 4 to 8 tubes and re-centrifuged for 20 min at 20,000g at 4° C. This pellet contains cardiac sympathetic nerve endings. The pellet was resuspended either in HEPES-buffered saline (HBS; 500 μl, normoxic conditions) or in glucose-free HBS, which contained the reducing agent sodium dithionite (500 μl, ischemic conditions), and incubated in the absence or presence of angiotensinogen (1 hr) or other agents for 20 min at 37° C. prior to ischemia (see below). Each suspension was used only once as an independent sample.
Norepinephrine assay: Coronary effluent and synaptosome supernatant will be assayed for NE by HPLC with electrochemical detection (ESA). […]

Assay [7] has as its system guinea-pig hearts. Put plainly: ischemia-reperfusion in guinea pig hearts ex vivo (Langendorff). As to conditions: 20-min global ischemia, 45-min reperfusion, lodoxamide 10 μM; for ventricular fibrillation during reperfusion: BILA2157 100 nM. Here is the method: Ischemia-reperfusion in guinea pig hearts ex vivo: Guinea-pig hearts will be perfused for 30 min prior to ischemia. Inamura et al., Circ. Res. 78: 475-481 (1996). Normothermic 20-min global ischemia will be induced by complete cessation of coronary perfusion, followed by 45-min reperfusion. Coronary effluent will be assayed for renin activity and NE.
Guinea-pig hearts were perfused ex vivo at constant pressure in a Langendorff apparatus and subjected to 20-min. stop-flow global ischemia, followed by 45-min. reperfusion (Hatta, E., R. Maruyama, S. J. Marshall, M. Imamura, and R. Levi. Bradykinin promotes ischemic norepinephrine release in guinea pig and human hearts. J. Pharmacol. Exp. Ther. 288: 919-927 (1999)). Surface ECG and coronary flow were continuously monitored; the coronary effluent was assayed for renin activity (i.e., ANG I generated as described herein). There was no detectable renin in the coronary effluent prior to ischemia. With reperfusion, there was significant renin overflow into the coronary effluent accompanied by ventricular fibrillation (VF) (FIG. 12).
Traces in the left panels were recorded at the end of the equilibration period prior to ischemia, showing normal sinus rhythm.

In assay [8] the test system is isolated normoxic guinea pig hearts. Put plainly: chronotropic response and norepinephrine overflow in normoxic isolated hearts challenged with 48/80. The conditions noted are these: BILA 2157 100 nM, lodoxamide 30 μM. From the text:
These findings indicate that cardiac mast cells are capable of releasing active renin, which then leads to local formation of ANG II causing norepinephrine exocytosis.

Assay [9] relates to cardiac mast cells. Briefly: renin in coronary effluent of normoxic Langendorff-perfused hearts challenged with 48/80. Also noted: species or system guinea pig. As to conditions: lodoxamide 10 μM or BILA 2157 100 nM prior to 48/80. Here is the method: Renin was measured in the coronary effluent of normoxic Langendorff-perfused guinea-pig hearts, ex vivo. […] When hearts were perfused with the mast-cell stabilizer lodoxamide (FIG. 9B) or the renin inhibitor BILA2157 prior to 48/80 challenge (FIGS. 9A and B), renin overflow was abolished.

The subject of assay [10] is Na+/H+ exchanger. Briefly: Na+/H+ exchanger activity (acid pulse protocol) in cardiac sympathetic nerve endings. Type of assay: cell-based, guinea pig. As to conditions: angiotensin II 10 nM; for increase in Na+/H+ exchanger activity over control: norepinephrine 1 μM. The protocol: Na^+/H^+ exchanger activity was assayed by measuring the rate of Na^+-dependent intracellular alkalinization in response to an acid load (NH4Cl). An example of the “acid pulse protocol” used to show Na^+/H^+exchanger activity in dye-loaded (BCECF-loaded) sympathetic nerve endings from guinea pig heart is shown in FIG. 18A. This protocol was performed under HEPES-buffered conditions. All of the solutions perfusing the tissue were osmotically balanced using N-methyl-D-glucamine substitution as previously described (Silver et al., Am. J. Physiol. Renal Physiol. 279: F195-F202, 2000; Silver et al., Am. J. Physiol. 275: F94-102, 1998). As shown in the representative tracing in FIG. 18A, guinea-pig heart sympathetic nerve endings, attached to a cover slip and pre-loaded with BCECF to monitor intracellular pH, were initially bathed in a balanced salt solution (Na Ringer's solution).
The slope of this alkalinization of Na^+/H^+ exchanger activity, represented by the dashed line in FIG. 18A, was 0.04 pH units/min. […] Mean Na^+/H^+ exchanger activities measured in cardiac sympathetic nerve endings in this pilot study are compared in FIG. 18C.

“Also recorded” adds a separate entry of the source.

Regarding `CC(=O)OCOC(=O)CN(CC(=O)OCOC(C)=O)c1ccccc1OCCOc1ccccc1N(CC(=O)OCOC(C)=O)CC(=O)OCOC(C)=O` [BAPTA-AM], the “effect on angiotensin II-induced increase in Na+/H+ exchanger activity” value in assay [1] (10 μM prior to angiotensin II 10 nM) is given as “prevented”.
As to `CNCCCN1c2ccccc2CCc2ccccc21` [DMI, desipramine], the “decrease of angiotensin II-induced norepinephrine release” value (shortened to “decrease”) in assay [2] is “about 50%”. The “effect on norepinephrine release induced by angiotensin II (FIG. 20)” value (“effect on norepinephrine release induced” below) in assay [2] (angiotensin II 100 nM) was “blocked”.
With `CCN(c1nc(N)c(C(=O)N=C(N)N)nc1Cl)C(C)C` [EIPA, 5-(N-ethyl-N-isopropyl)-amiloride], the “decrease” value in [2] is “about 50%”. Moreover, the “effect on norepinephrine release induced” value in [2] (angiotensin II 100 nM) was “blocked”.
In the case of `CCCCCCCCCCCCCC(=O)O[C@@H]1[C@@H](C)[C@@]2(O)[C@@H](C=C(CO)C[C@]3(O)C(=O)C(C)=C[C@@H]23)[C@@H]2C(C)(C)[C@]12OC(C)=O` [PMA, phorbol 12-myristate 13-acetate], the “increase in the releasing effect of angiotensin II” value in [3] (8-min incubation with PMA) was 3 fold.
As for `COc1ccc2c(c1)CC[C@@H]1[C@@H]2CC[C@]2(C)[C@@H](NCCCCCCN3C(=O)C=CC3=O)CC[C@@H]12` [U-73122], the “effect on angiotensin II-induced intracellular calcium transient” value in [4] (U-73122 1 μM) was “prevented”. Further, the “decrease” value in assay [2] is “about 60%”. Besides, the “effect on norepinephrine release induced” value in assay [2] (angiotensin II 100 nM) is “blocked”.
In the case of `CC(=O)OC[C@H]1O[C@@H]([S-])[C@H](OC(C)=O)[C@@H](OC(C)=O)[C@@H]1OC(C)=O.CCP(CC)CC.[Au+]` [auranofin], the “inhibition of human lung mast cell release (histamine)” value (“inhibition” below) in assay [5] is listed as “inhibited”.
With `O=C(O)c1cc(=O)c2c(OCC(O)COc3cccc4oc(C(=O)O)cc(=O)c34)cccc2o1` [disodium cromoglycate], the “inhibition” value in [5] was “poorly inhibit”.
Take `C[C@H](N[C@@H](CCc1ccccc1)C(=O)O)C(=O)N1CCC[C@H]1C(=O)O` [enalaprilat]: in [6] (nerve endings incubated with BILA2157 10 nM, enalaprilat 30 nM or EXP 3174 10 nM), the “effect on 48/80 potentiation of norepinephrine release” value is on record as “abolished”.
Consider `CC(Cc1ccc(O)cc1)NCC(O)c1cc(O)cc(O)c1` (stereo not drawn) [fenoterol], for which the “inhibition” value in assay [5] is recorded as “most potent global inhibitors”.
In the case of `N#Cc1cc(NC(=O)C(=O)O)c(Cl)c(NC(=O)C(=O)O)c1` [lodoxamide], the results for the “ventricular fibrillation during reperfusion” value in assay [7] and in assay [7] (listed as Lodoxamide) were “no ventricular fibrillation; also recorded: prevent ventricular fibrillation” and “prevented ventricular fibrillation”, respectively. In assay [7] (BILA 2157 100 nM), the “renin overflow into coronary effluent on reperfusion” value is reported as “no such increase occurs; also recorded: disappeared from the coronary effluent; also recorded: prevented renin release”. Moreover, the “chronotropic response to 48/80” value in assay [8] is “markedly abbreviated; also recorded: diminishes the chronotropic response”. In addition, the “renin overflow into coronary effluent after 48/80 challenge” value in assay [9] is on record as “abolished; also recorded: markedly diminished”. Besides, the “norepinephrine release when hearts perfused with stabilizer prior to 48/80” value in assay [6] (lodoxamide 10 μM) is reported as “markedly attenuated”.
For the compound `CCCc1c2oc(C(=O)O)cc(=O)c2cc2c(=O)cc(C(=O)O)n(CC)c12` [nedocromil sodium], the “inhibition” value in assay [5] is recorded as “poorly inhibit”.
As to `NC[C@H](O)c1ccc(O)c(O)c1` [norepinephrine], the “increase in Na+/H+ exchanger activity over control” value in [10] is reported as “about 3 fold”.
With “angiotensin II (DRVYIHPF; Angiotensin-2; UniProt P01019 25-32, looked up)”, the “increase in Na+-dependent intracellular pH recovery rate” value in assay [1] (angiotensin II 10 nM) was determined as 2.5 fold. In addition, in [10] (control 0.04), the “rate of Na+-dependent intracellular alkalinization” value was 0.19 pH units/min. Besides, the “increase in Na+/H+ exchanger activity over control” value in [10] is recorded as “about 6 fold”. Besides, the “increase in MPP+ release above basal levels” value in assay [3] (10-min exposure) stood at 20%. Further, in [4] (angiotensin II 10 nM, from about 60 nM basal), the “intracellular calcium after angiotensin II” value is listed as 220 nM. Besides, the “increase in norepinephrine release above basal level” value in assay [2] (angiotensin II 100 nM) is reported as 27%.

The values are drawn from patent US20080032918A1, “Mast cell-derived renin” (Cornell Research Foundation, Inc., priority 2003, published 2008).
